How the values were obtained:
ALOMY = test: greenhouse experiment, post-emergence treatment; format: in vivo, Alopecurus myosuroides; settings: post-emergence method, scale from 0 to 100
Source text: (§1) The culture containers used were plastic flowerpots containing loamy sand with approximately 3.0% of humus as the substrate. The seeds of the test plants were sown separately for each species.
(§2) For the post-emergence treatment, the test plants were first grown to a height of 3 to 15 cm, depending on the plant habit, and only then treated with the active ingredients which had been suspended or emulsified in water. For this purpose, the test plants were either sown directly and grown in the same containers, or they were first grown separately as seedlings and transplanted into the test containers a few days prior to treatment.
(§3) Depending on the species, the plants were kept at 10-25° C. or 20-35° C., respectively.
(§4) The test period extended over 2 to 4 weeks. During this time, the plants were tended, and their response to the individual treatments was evaluated.
(§5) Evaluation was carried out using a scale from 0 to 100. 100 means no emergence of the plants, or complete destruction of at least the aerial moieties, and 0 means no damage, or normal course of growth. A good herbicidal activity is given at values of at least 70 and a very good herbicidal activity is given at values of at least 85.
(§6) The plants used in the greenhouse experiments were of the following species: […]

APESV = test: greenhouse experiment, pre-emergence treatment; format: in vivo, Apera spica-venti; settings: pre-emergence method, application rate 1000 g/ha, scale from 0 to 100
Source text: as §1
(§7) For the pre-emergence treatment, the active ingredients, which had been suspended or emulsified in water, were applied directly after sowing by means of finely distributing nozzles.
(§8) The containers were irrigated gently to promote germination and growth and subsequently covered with transparent plastic hoods until the plants had rooted. This cover caused uniform germination of the test plants, unless this had been impaired by the active ingredients.
as §3, §4, §5, §6

ECHCG [1] = test: greenhouse experiment, pre-emergence treatment; format: in vivo, Echinocloa crus-galli; settings: pre-emergence method, scale from 0 to 100
Source text: as §1, §7, §8, §3, §4, §5, §6

AMARE [2] = test: greenhouse experiment, post-emergence treatment; format: in vivo, Amaranthus retroflexus; settings: post-emergence method, scale from 0 to 100
Source text: as §1, §2, §3, §4, §5, §6

AMARE [3] = test: greenhouse experiment, pre-emergence treatment; format: in vivo, Amaranthus retroflexus; settings: pre-emergence method, application rate 1000 g/ha, scale from 0 to 100
Source text: as §1, §7, §8, §3, §4, §5, §6

ECHCG [4] = test: greenhouse experiment, post-emergence treatment; format: in vivo, Echinocloa crus-galli; settings: post-emergence method, scale from 0 to 100
Source text: as §1, §2, §3, §4, §5, §6

AVEFA = test: greenhouse experiment, post-emergence treatment; format: in vivo, Avena fatua; settings: post-emergence method, application rate 1000 g/ha, scale from 0 to 100
Source text: as §1, §2, §3, §4, §5, §6

SETVI = test: greenhouse experiment, post-emergence treatment; format: in vivo, Setaria viridis; settings: post-emergence method, scale from 0 to 100
Source text: as §1, §2, §3, §4, §5, §6

ABUTH = test: greenhouse experiment, post-emergence treatment; format: in vivo, Abutilon theophrasti; settings: post-emergence method, application rate 1000 g/ha, scale from 0 to 100
Source text: as §1, §2, §3, §4, §5, §6

SETFA = test: greenhouse experiment, pre-emergence treatment; format: in vivo, Setaria faberi Herrm; settings: pre-emergence method, application rate 1000 g/ha, scale from 0 to 100
Source text: as §1, §7, §8, §3, §4, §5, §6

Row | Compound | herbicidal activity against ALOMY (ALOMY; application rate 1000 g/ha) | herbicidal activity against APESV (APESV) | herbicidal activity against ECHCG (ECHCG [1]; application rate 1000 g/ha) | herbicidal activity against AMARE (AMARE [2]; application rate 1000 g/ha) | further results
1 | O=C(O)c1nc(C2CC2)ncc1-c1cccc2c1OC(F)(F)O2 [example 2, 2-Cyclopropyl-5-(2,2-difluoro-1,3-benzodioxol-4-yl)pyrimidine-4-carboxylic Acid] | very good (a very good herbicidal activity is given at values of at least 85) | very good (a very good herbicidal activity is given at values of at least 85) | very good (a very good herbicidal activity is given at values of at least 85) | very good (a very good herbicidal activity is given at values of at least 85) | 
2 | O=C(O)c1nc(C2CC2)ncc1-c1cccc2c1OCO2 [example 6] | very good (a very good herbicidal activity is given at values of at least 85) | very good (a very good herbicidal activity is given at values of at least 85) | very good (a very good herbicidal activity is given at values of at least 85) | very good (a very good herbicidal activity is given at values of at least 85) | herbicidal activity against AMARE (AMARE [3]): very good (a very good herbicidal activity is given at values of at least 85)
3 | COC(=O)c1nc(C2CC2)ncc1-c1c(Cl)ccc2c1OCO2 [example 11] | very good (a very good herbicidal activity is given at values of at least 85) |  | very good (a very good herbicidal activity is given at values of at least 85) | good (A good herbicidal activity is given at values of at least 70) | 
4 | O=C(O)c1nc(C2CC2)ncc1-c1csc2ccccc12 [example 13] |  |  |  |  | herbicidal activity against ALOMY (ALOMY; application rate 2000 g/ha): good (A good herbicidal activity is given at values of at least 70); herbicidal activity against ECHCG (ECHCG [4]; application rate 2000 g/ha): good (A good herbicidal activity is given at values of at least 70); herbicidal activity against ECHCG (ECHCG [1]; application rate 2000 g/ha): very good (a very good herbicidal activity is given at values of at least 85); herbicidal activity against AMARE (AMARE [2]; application rate 2000 g/ha): very good (a very good herbicidal activity is given at values of at least 85)
5 | O=C(O)c1nc(C2CC2)ncc1-c1c(Cl)ccc2c1OCO2 [example 14] | good (A good herbicidal activity is given at values of at least 70) | very good (a very good herbicidal activity is given at values of at least 85) | very good (a very good herbicidal activity is given at values of at least 85) |  | herbicidal activity against AVEFA (AVEFA): good (A good herbicidal activity is given at values of at least 70)
6 | COC(=O)c1nc(C2CC2)ncc1-c1coc2ccccc12 [example 15] |  |  | very good (a very good herbicidal activity is given at values of at least 85) |  | herbicidal activity against SETVI (SETVI; application rate 1000 g/ha): very good (a very good herbicidal activity is given at values of at least 85)
7 | COC(=O)c1nc(C2CC2)ncc1-c1c(Cl)sc2ccccc12 [example 17, Methyl 5-(2-chlorobenzothiophen-3-yl)-2-cyclopropyl-pyrimidine-4-carboxylate] |  |  |  |  | herbicidal activity against SETVI (SETVI; application rate 2000 g/ha): very good (a very good herbicidal activity is given at values of at least 85)
8 | O=C(O)c1nc(C2CC2)ncc1-c1cc2c(cc1Br)OCO2 [example 25] | good (A good herbicidal activity is given at values of at least 70) | very good (a very good herbicidal activity is given at values of at least 85) | very good (a very good herbicidal activity is given at values of at least 85) |  | herbicidal activity against ECHCG (ECHCG [4]; application rate 1000 g/ha): good (A good herbicidal activity is given at values of at least 70); herbicidal activity against ABUTH (ABUTH): good (A good herbicidal activity is given at values of at least 70)
9 | COC(=O)c1nc(C2CC2)ncc1-c1ccc2ccccc2c1Cl [example 26] |  |  |  |  | herbicidal activity against SETFA (SETFA): very good (a very good herbicidal activity is given at values of at least 85)
10 | O=C(O)c1nc(C2CC2)ncc1-c1cc2c(cc1I)OCO2 [example 29] |  |  |  | very good (a very good herbicidal activity is given at values of at least 85) | 
11 | COC(=O)c1nc(C2CC2)ncc1-c1cccc2c1OCCO2 [example 30] |  |  |  | very good (a very good herbicidal activity is given at values of at least 85) | 
12 | O=C(O)c1nc(C2CC2)ncc1-c1cccc2c1OCCO2 [example 31] |  | very good (a very good herbicidal activity is given at values of at least 85) | very good (a very good herbicidal activity is given at values of at least 85) | very good (a very good herbicidal activity is given at values of at least 85) | herbicidal activity against ECHCG (ECHCG [4]; application rate 1000 g/ha): very good (a very good herbicidal activity is given at values of at least 85)
13 | COC(=O)c1nc(C2CC2)ncc1-c1c(Cl)cc2c(c1OC)OCO2 [example 35] |  |  |  |  | herbicidal activity against ABUTH (ABUTH): very good (a very good herbicidal activity is given at values of at least 85)

— patent publication US20190161451A1, “HERBICIDAL PYRIMIDINE COMPOUNDS” (BASF SE, priority 2016, published 2019)
